Converted amounts (≈) assume the structure as drawn. Like-named read-outs stand apart in the source and are kept apart here.
Key:
in vivo [1] = conditions: male, SD, rat, plasma, iv, 1 mg/kg
horse blood cells = type: cell-based; conditions: 90% hemolysis against horse blood cells; ± percentage standard deviation
Method: (§1) For the minimum inhibitory concentration (MIC) assay, strains for testing were grown on YPD agar for 24 hours, and subcultured to YPD broth medium. Whole strains were incubated for 18 hours at 35 °C by shaking incubator. Grown organisms were diluted with fresh RPMI 1640 medium to appropriate concentration, 5 × 10^4 CFU/ml. Cultures were inoculated to 96-well plates containing antifungal medium. All compounds were dissolved using Dimethyl Sulfoxide (DMSO) and diluted broth media. Fungal diluted solution and antifungal medium were mixed at 1:1 ratio so total 200 ul mixed medium was made. Whole experiment plates were incubated for 24 hours at 37 °C. […] The MICs were calculated in duplicate using the Clinical and Laboratory Standards Institute M27-A3 microbroth methodology. Hemolysis experiments and the 3-(4,5-dimethylthiazol-2-yl)-5-(3-carboxymethoxyphenyl)-2-(4-sulfophenyl)-2H-tetrazolium (MTS) cell proliferation colorimetric assay were performed following known procedures[12],[27],[29].

[2] = Single intravenous dose acute toxicity; type: in vivo, mice; conditions: ICR, mouse, in vivo, single intravenous administration
Method: (§2) All in vivo mouse toxicity studies were conducted according to Testing Guidelines for Safety Evaluation of Drugs[32] and the Organisation for Economic Co-operation and Development (OECD) Guideline[33]. Male and female ICR mice were used 7 weeks old for the toxicity test. […] The single doses were 1, 2.5, and 5 mg per kg body weight.

ICR mice = test: Single intravenous dose acute toxicity; type: in vivo
Method: as §2

[3] = rats, oral administration
in vivo [4] = conditions: mouse, 0.5 mg/kg
Text: Supplement 41598_2018_31801_MOESM1_ESM.docx, table 4: Table S4.

[5] = Microsomal (metabolic) stability; type: in vitro ADME; conditions: human liver microsomes 1.0 mg/ml
Method: A metabolic stability experiment was conducted to calculate the rate of disappearance of polyene macrolides following in vitro incubation with human microsomes. Working solutions of polyene macrolides were prepared from a 10 mM stock solution in dimethyl sulfoxide (DMSO) diluted to a final concentration of 1 µM in 0.1 M potassium phosphate buffer (pH 7.4). Each incubation mixture included 1 mg/mL human microsomal protein (BD Gentest^TM, Franklin Lakes, NJ, USA) and 1 mM NADPH. The reactions were terminated at 0, 15, 45, and 80 min. The reaction mixtures were vigorously vortexed and then analyzed using the API2000 LC-MS/MS) system (Applied Biosystems, USA) using an Xterra MS C18 (3.5-µm, 2.1 × 50 mm, Waters).

[6] = tested on: Saccharomyces cerevisiae ATCC9035; test: MIC assay (CLSI M27-A3 microbroth); type: cell-based; conditions: Saccharomyces cerevisiae, ATCC9035, read-out: Antifungal activity (MIC)
Method: as §1

C. albicans SL38 = test: MIC assay (CLSI M27-A3 microbroth); type: cell-based; conditions: Candida albicans, SL38, read-out: Antifungal activity (MIC)
Method: as §1

C. albicans SC5314 = test: MIC assay (CLSI M27-A3 microbroth); type: cell-based; conditions: Candida albicans, SC5314, read-out: Antifungal activity (MIC)
Method: as §1

C. albicans SL28 = test: MIC assay (CLSI M27-A3 microbroth); type: cell-based; conditions: Candida albicans, SL28, read-out: Antifungal activity (MIC)
Method: as §1

[7] = tested on: Cryptococcus humicola ATCC9949; test: MIC assay (CLSI M27-A3 microbroth); type: cell-based; conditions: Vanrija humicola, ATCC9949, read-out: Antifungal activity (MIC)
Method: as §1

[8] = tested on: Candida albicans KCTC7965; test: MIC assay (CLSI M27-A3 microbroth); type: cell-based; conditions: Candida albicans, KCTC7965, read-out: Antifungal activity (MIC)
Method: as §1

[9] = tested on: ergosterol-containing membranes; test: Preliminary SPR experiments; type: binding; conditions: ergosterol- vs cholesterol-containing liposomes, unpublished data

CC(=O)NC1C(OC2C(C)OC(OC3C=CC=CC=CC=CC=CC=CC=CC(C)C(O)C(C)C(C)OC(=O)CC(O)CC(O)CC(O)CCC(O)C(O)CC4(O)CC(O)C(C(=O)O)C(C3)O4)C(O)C2N)OC(CO)C(O)C1O (centres unmarked) [NPP B1, Nystatin-like Pseudonocardia polyene B1]
AUC(0-inf) (in vivo [1]): 13600 ng·h/mL
AUC(0-t) (in vivo [1]): 10300 ng·h/mL
MRT inf (in vivo [1]): 15.6 h
Vd (in vivo [1]): 1.1 L/kg
clearance (in vivo [1]): 1.67 mL/min/kg
half-life (in vivo [1]): 14.5 h
Hemolytic activity (MHC, minimum hemolytic concentration) (horse blood cells): 13.60 ± 0.19 µg/mL
LD50 at 7 days ([2]; female mice, read-out: median lethal dose (LD50)): 2.95 mg/kg
LD50 at 7 days ([2]; male mice, read-out: median lethal dose (LD50)): 2.95 mg/kg
LD50 at 7 days ([2]; both sexes, mice, read-out: LD50, median lethal dose (dose causing 50% mortality)): 2.95 mg/kg
Deaths on day after start of treatment (ICR mice; female, single iv 1mg/kg, day 0): 0
Deaths on day after start of treatment (ICR mice; female, single iv 1mg/kg, day 1): 0
Deaths on day after start of treatment (ICR mice; female, single iv 1mg/kg, day 2): 0
Deaths on day after start of treatment (ICR mice; female, single iv 1mg/kg, day 3): 0
Deaths on day after start of treatment (ICR mice; female, single iv 1mg/kg, day 4): 0
Deaths on day after start of treatment (ICR mice; female, single iv 1mg/kg, day 5): 0
Deaths on day after start of treatment (ICR mice; female, single iv 1mg/kg, day 6): 0
Deaths on day after start of treatment (ICR mice; female, single iv 1mg/kg, day 7): 0
Deaths on day after start of treatment (ICR mice; female, single iv 2.5mg/kg, day 0): 1
Deaths on day after start of treatment (ICR mice; female, single iv 2.5mg/kg, day 1): 0
Deaths on day after start of treatment (ICR mice; female, single iv 2.5mg/kg, day 2): 1
Deaths on day after start of treatment (ICR mice; female, single iv 2.5mg/kg, day 3): 0
Deaths on day after start of treatment (ICR mice; female, single iv 2.5mg/kg, day 4): 0
Deaths on day after start of treatment (ICR mice; female, single iv 2.5mg/kg, day 5): 0
Deaths on day after start of treatment (ICR mice; female, single iv 2.5mg/kg, day 6): 0
Deaths on day after start of treatment (ICR mice; female, single iv 2.5mg/kg, day 7): 0
Deaths on day after start of treatment (ICR mice; female, single iv 5mg/kg, day 0): 3
Deaths on day after start of treatment (ICR mice; female, single iv 5mg/kg, day 1): 2
Deaths on day after start of treatment (ICR mice; female, single iv 5mg/kg, day 2): 0
Deaths on day after start of treatment (ICR mice; female, single iv 5mg/kg, day 3): 0
Deaths on day after start of treatment (ICR mice; female, single iv 5mg/kg, day 4): 0
Deaths on day after start of treatment (ICR mice; female, single iv 5mg/kg, day 5): 0
Deaths on day after start of treatment (ICR mice; female, single iv 5mg/kg, day 6): 0
Deaths on day after start of treatment (ICR mice; female, single iv 5mg/kg, day 7): 0
Deaths on day after start of treatment (ICR mice; male, single iv 1mg/kg, day 0): 0
Deaths on day after start of treatment (ICR mice; male, single iv 1mg/kg, day 1): 0
Deaths on day after start of treatment (ICR mice; male, single iv 1mg/kg, day 2): 0
Deaths on day after start of treatment (ICR mice; male, single iv 1mg/kg, day 3): 0
Deaths on day after start of treatment (ICR mice; male, single iv 1mg/kg, day 4): 0
Deaths on day after start of treatment (ICR mice; male, single iv 1mg/kg, day 5): 0
Deaths on day after start of treatment (ICR mice; male, single iv 1mg/kg, day 6): 0
Deaths on day after start of treatment (ICR mice; male, single iv 1mg/kg, day 7): 0
Deaths on day after start of treatment (ICR mice; male, single iv 2.5mg/kg, day 0): 1
Deaths on day after start of treatment (ICR mice; male, single iv 2.5mg/kg, day 1): 0
Deaths on day after start of treatment (ICR mice; male, single iv 2.5mg/kg, day 2): 1
Deaths on day after start of treatment (ICR mice; male, single iv 2.5mg/kg, day 3): 0
Deaths on day after start of treatment (ICR mice; male, single iv 2.5mg/kg, day 4): 0
Deaths on day after start of treatment (ICR mice; male, single iv 2.5mg/kg, day 5): 0
Deaths on day after start of treatment (ICR mice; male, single iv 2.5mg/kg, day 6): 0
Deaths on day after start of treatment (ICR mice; male, single iv 2.5mg/kg, day 7): 0
Deaths on day after start of treatment (ICR mice; male, single iv 5mg/kg, day 0): 4
Deaths on day after start of treatment (ICR mice; male, single iv 5mg/kg, day 1): 0
Deaths on day after start of treatment (ICR mice; male, single iv 5mg/kg, day 2): 1
Deaths on day after start of treatment (ICR mice; male, single iv 5mg/kg, day 3): 0
Deaths on day after start of treatment (ICR mice; male, single iv 5mg/kg, day 4): 0
Deaths on day after start of treatment (ICR mice; male, single iv 5mg/kg, day 5): 0
Deaths on day after start of treatment (ICR mice; male, single iv 5mg/kg, day 6): 0
Deaths on day after start of treatment (ICR mice; male, single iv 5mg/kg, day 7): 0
detection in the plasma following oral administration [3]: not detected
AUC(0-inf) (in vivo [4]; read-out: AUC0-inf): 15100 ng·h/mL
AUC(0-t) (in vivo [4]; read-out: AUC0-t): 5890 ng·h/mL
clearance (in vivo [4]; read-out: CL (converted)): 0.5 mL/min/kg
MRT inf (in vivo [4]; read-out: MRTinf): 17 h
Vd (in vivo [4]; read-out: Vss): 0.6 L/kg
half-life (in vivo [4]; read-out: t1/2 (converted)): 12.3 h
Clearance class [5]: Moderate
k [5]: 0.019
half-life at 1 µM ([5]; pH 7.4): 0.608 h
microsomal CLint at 1 µM ([5]; pH 7.4): 19000 µL/min/mg
remaining at 80 min, 1 µM ([5]; pH 7.4, 1 µM, 80-min incubation): 28.2%
MIC [6]: 2 µg/mL (≈ 1.77 µM)
MIC (C. albicans SL38): 2 µg/mL (≈ 1.77 µM)
MIC (C. albicans SC5314): 4 µg/mL (≈ 3.55 µM)
MIC (C. albicans SL28): 4 µg/mL (≈ 3.55 µM)
MIC [7]: 1 µg/mL (≈ 0.887 µM)
MIC [8]: 2 µg/mL (≈ 1.77 µM)
binding preference [9]: binds preferentially to ergosterol-containing liposomes

Source: paper PMC6134108, “Nystatin-like Pseudonocardia polyene B1, a novel disaccharide-containing antifungal heptaene antibiotic” (Scientific Reports, 2018)
